Assay results from patent US11992473B2, “Compositions and methods for diagnosis and treatment of conditions related to the quality of aging and longevity” (Epitracker, Inc., priority 2018, dated 2024).

Tests used:
Assay type in all cases: cell-based, human
[1] = test system: Peripheral blood mononuclear cells, B cells; experiment: BioMAP Diversity PLUS BT system (T cell dependent B cell activation); details: for interleukin 17A (IL-17A): human cell system mimicking asthma, autoimmunity and allergies (FIG. 5)
Description: (§1) This study examined activities of small molecules discovered in dolphin serum that had protective profiles against diseases of aging which can impact quality of life and longevity. These molecules were tested across 12 human primary cell-based systems as part of DiscoverX's BioMAP Diversity Plus program. These systems are designed to model complex human tissue and disease biology of the vasculature, skin, lung, and inflammatory tissues. Quantitative measurements of biomarker activities across this broad panel, along with comparative analysis of biological activities of known bioactive agents were used to predict and compare the efficacy and function of the four compounds. Compounds were tested at four concentrations (740 nm and 2.2, 6.7 and 20 μM).
(§2) BioMAP panels consist of human primary cell-based systems designed to model different aspects of the human body in an in vitro format. The 12 systems in the Diversity PLUS panel allow test agent characterization in an unbiased way across a broad set of systems modeling various human disease states. BioMAP systems are constructed with one or more primary cell types from healthy human donors, with stimuli (such as cytokines or growth factors) added to capture relevant signaling networks that naturally occur in human tissue or pathological conditions. Vascular biology is modeled in both a Th1 (3C system) and a Th2 (4H system) inflammatory environment, as well as in a Th1 inflammatory state specific to arterial smooth muscle cells (CASM3C system). Additional systems recapitulate aspects of the systemic immune response including monocyte-driven Th1 inflammation (LPS system) or T cell stimulation (SAg system), chronic Th1 inflammation driven by macrophage activation (lMphg system) and the T cell-dependent activation of B cells that occurs in germinal centers (BT system). The BE3C system (Th1) and the BF4T system (Th2) represent airway inflammation of the lung, while the MyoF system models myofibroblast-lung tissue remodeling. Lastly, skin biology is addressed in the KF3CT system modeling Th1 cutaneous inflammation and the HDF3CGF system modeling wound healing.
(§3) Each test agent generates a signature BioMAP profile that is created from the changes in protein biomarker readouts within individual system environments. Biomarker readouts (7-17 per system) are selected for therapeutic and biological relevance, are predictive for disease outcomes or specific drug effects and are validated using agents with known mechanism of action (MoA). Each readout is measured quantitatively by immune-based methods that detect protein (e.g., ELISA) or functional assays that measure proliferation and viability. BioMAP readouts are diverse and include cell surface receptors, cytokines, chemokines, matrix molecules and enzymes.
(§4) The Diversity PLUS panel allows test agent characterization in an unbiased way across a broad set of systems modeling various human disease states. These systems are designed to model complex human tissue and disease biology of the vasculature, skin, lung, and inflammatory tissues.
(§5) BioMAP systems are constructed with one or more primary cell types from healthy human donors, with stimuli (such as cytokines or growth factors) added to capture relevant signaling networks that naturally occur in human tissue or pathological conditions. Vascular biology is modeled in both a Th1 (3C system) and a Th2 (4H system) inflammatory environment, as well as in a Th1 inflammatory state specific to arterial smooth muscle cells (CASM3C system). Additional systems recapitulate aspects of the systemic immune response including monocyte-driven Th1 inflammation (LPS system) or T cell stimulation (SAg system), chronic Th1 inflammation driven by macrophage activation (lMphg system) and the T cell-dependent activation of B cells that occurs in germinal centers (BT system).

Dermal fibroblasts = experiment: BioMAP Diversity PLUS HDF3CGF system (wound healing and matrix/tissue remodeling); details: for decorin: fibrosis and chronic inflammation (FIG. 7)
Description: as §1, §2, §3, §4, §5

[2] = test system: Venular endothelial cells, peripheral blood mononuclear cells; experiment: BioMAP Diversity PLUS SAg system (T cell stimulation, Th1 type chronic inflammation); details: for T cell proliferation: concentrations ranging from 740 nm to 6.7 μM (FIG. 2); for Significant log10 reduction compared to nontreated controls: T cell proliferation / Significant log10 reduction compared to nontreated controls: Monocyte chemoattractant protein 1 (MCP-1): SAg system
Description: as §1, §2
as §3, with “enzymes. In total, the Diversity PLUS panel contains 148 biomarker readouts that capture biological changes that occur within the physiological context of the particular BioMAP system. Specific BioMAP activities have been correlated to in vivo biology, and multiparameter BioMAP profiles have been used to distinguish compounds based on MoA and target selectivity across diverse physiological systems.” for “enzymes.”
(§6) The Diversity PLUS panel allows test agent characterization in an unbiased way across a broad set of systems modeling various human disease states. These systems are designed to model complex human tissue and disease biology of the vasculature, skin, lung, and inflammatory tissues. Quantitative measurements of 148 biomarker activities across this broad panel, along with comparative analysis of biological activities from known bioactive agents, were used to predict and compare the efficacy and function of each selected compound at four concentrations (740 nm and 2.2, 6.7 and 20 μM). […]

[3] = test system: Venular endothelial cells, peripheral blood mononuclear cells; experiment: BioMAP Diversity PLUS LPS system (Th1 type chronic inflammation, monocyte activation); details: for secretion of prostaglandin E2 (PGE2): human cell system mimicking T-cell and monocyte driven chronic inflammation and cardiovascular diseases (FIG. 4)
Description: as §1, §2, §3, §4, §5

Lung fibroblasts = experiment: BioMAP Diversity PLUS MyoF system (myofibroblast differentiation and tissue remodeling)
Description: as §1, §2
as §3, with “enzymes. In total, the Diversity PLUS panel contains 148 biomarker readouts that capture biological changes that occur within the physiological context of the particular BioMAP system. Specific BioMAP activities have been correlated to in vivo biology, and multiparameter BioMAP profiles have been used to distinguish compounds based on MoA and target selectivity across diverse physiological systems.” for “enzymes.”
as §6

[4] = test system: Macrophages, venular endothelial cells; experiment: BioMAP Diversity PLUS lMphg system (Th1 type chronic inflammation, macrophage activation); details: /Mphg system; 2.2 μM
Description: as §1, §2
as §3, with “enzymes. In total, the Diversity PLUS panel contains 148 biomarker readouts that capture biological changes that occur within the physiological context of the particular BioMAP system. Specific BioMAP activities have been correlated to in vivo biology, and multiparameter BioMAP profiles have been used to distinguish compounds based on MoA and target selectivity across diverse physiological systems.” for “enzymes.”
as §6

[5] = human cell system mimicking wound healing, remodeling
[6] = human cell system mimicking T-cell driven chronic inflammation and autoimmune diseases

SMILES: O=C(O)[C@@H]1C[C@@H](O)CN1 (relative stereo) [Trans-4-hydroxyproline]
- interleukin 17A (IL-17A) [1]: lowered
- decorin (Dermal fibroblasts; [5]): inhibitory activity
- T cell proliferation [2, 6]: decreased

SMILES: O=C(O)Cc1c[nH]cn1 [4-imidazoleacetate]
- Significant log10 reduction compared to nontreated controls: Secreted interleukin 17F (IL-17F) ([1]; BT system, 0.7 μM): −0.16 log10
- Significant log10 reduction compared to nontreated controls: T cell proliferation ([2]; 2.2 μM): −0.11 log10
- Significant log10 reduction compared to nontreated controls: T cell proliferation ([2]; 6.7 μM): −0.09 log10
- Significant log10 reduction compared to nontreated controls: T cell proliferation ([2]; 20.0 μM): −0.09 log10
- T cell proliferation [2, 6]: decreased

SMILES: NCCCCC(=O)O [5-aminovalerate]
- Significant log10 reduction compared to nontreated controls: Secreted prostaglandin E2 (PGE2) ([3]; LPS system, 6.7 μM): −0.10 log10
- secretion of prostaglandin E2 (PGE2) [3]: lowered
- Significant log10 reduction compared to nontreated controls: Tumor necrosis factor alpha (TNFα) ([1]; BT system, 6.7 μM): −0.11 log10
- decorin (Dermal fibroblasts; [5]): inhibitory activity
- Significant log10 reduction compared to nontreated controls: Decorin (Lung fibroblasts; 6.7 μM): −0.07 log10
- Significant log10 reduction compared to nontreated controls: Decorin (Lung fibroblasts; 20.0 μM): −0.10 log10
- Significant log10 reduction compared to nontreated controls: T cell proliferation ([2]; 0.7 μM): −0.7 log10
- Significant log10 reduction compared to nontreated controls: T cell proliferation ([2]; 2.2 μM): −0.12 log10
- Significant log10 reduction compared to nontreated controls: T cell proliferation ([2]; 6.7 μM): −0.14 log10
- T cell proliferation [2, 6]: decreased

SMILES: CCCCCCC=CCCCCCCCCC(=O)O [Compound 10-heptadecanoate]
- Significant log10 reduction compared to nontreated controls: Secreted interleukin 2 (IL-2) ([1]; BT system, 6.7 μM): −0.11 log10

SMILES: N[C@@H](CCC(=O)NCC(=O)O)C(=O)O [Gamma-glutamylglycine]
- secretion of prostaglandin E2 (PGE2) [3]: lowered
- Significant log10 reduction compared to nontreated controls: Secreted interleukin 17A ([1]; BT system, 0.7 μM): −0.17 log10
- Significant log10 reduction compared to nontreated controls: Secreted interleukin 17A (IL-17A) ([1]; BT system, 2.2 μM): −0.17 log10
- interleukin 17A (IL-17A) [1]: lowered
- decorin (Dermal fibroblasts; [5]): inhibitory activity
- Significant log10 reduction compared to nontreated controls: T cell proliferation ([2]; 6.7 μM): −0.11 log10
- Significant log10 reduction compared to nontreated controls: T cell proliferation ([2]; 20.0 μM): −0.07 log10
- CD40 ([2]; human cell system mimicking T-cell driven chronic inflammation and autoimmune diseases, 740 nm, 2.2 μM, and 6.7 μM (FIG. 3)): lowered
- T cell proliferation [2, 6]: decreased

SMILES: NC(=O)NCCCC[C@H](N)C(=O)O [Homocitrulline]
- secretion of prostaglandin E2 (PGE2) [3]: lowered
- interleukin 8 (IL-8) (Dermal fibroblasts; human cell system mimicking wound healing, remodeling, fibrosis and chronic inflammation (FIG. 8)): inhibitory activity
- T cell proliferation [2, 6]: decreased

SMILES: CC(=O)NCCc1c[nH]cn1 [N-acetylhistamine]
- Significant log10 reduction compared to nontreated controls: B cell proliferation ([1]; BT system, 2.2 μM): −0.12 log10
- Significant log10 reduction compared to nontreated controls: B cell proliferation ([1]; BT system, 6.7 μM): −0.06 log10
- Significant log10 reduction compared to nontreated controls: B cell proliferation ([1]; BT system, 20.0 μM): −0.08 log10
- Significant log10 reduction compared to nontreated controls: Secreted interleukin 17A (IL-17A) ([1]; BT system, 20.0 μM): −0.19 log10
- Significant log10 reduction compared to nontreated controls: Secreted interleukin 17F (IL-17F) ([1]; BT system, 20.0 μM): −0.42 log10
- Significant log10 reduction compared to nontreated controls: Monocyte chemoattractant protein 1 (MCP-1) [4]: −0.26 log10
- Significant log10 reduction compared to nontreated controls: Vascular cell adhesion molecule 1 (VCAM-1) (Dermal fibroblasts; HDF3CGF system, 6.7 μM): −0.08 log10
- Significant log10 reduction compared to nontreated controls: Collagen III (Dermal fibroblasts; HDF3CGF system, 20.0 μM): −0.13 log10
- Significant log10 reduction compared to nontreated controls: Vascular cell adhesion molecule 1 (VCAM-1) (Dermal fibroblasts; HDF3CGF system, 20.0 μM): −0.15 log10
- Significant log10 reduction compared to nontreated controls: Alpha smooth muscle actin (αSMA) (Lung fibroblasts; 0.7 μM): −0.05 log10
- Significant log10 reduction compared to nontreated controls: Alpha smooth muscle actin (αSMA) (Lung fibroblasts; 2.2 μM): −0.06 log10
- Significant log10 reduction compared to nontreated controls: Alpha smooth muscle actin (αSMA) (Lung fibroblasts; 6.7 μM): −0.11 log10
- Significant log10 reduction compared to nontreated controls: Alpha smooth muscle actin (αSMA) (Lung fibroblasts; 20.0 μM): −0.09 log10

SMILES: CCCCCCCCCCCCCCC(=O)O [Pentadecanoate (C15:0), pentadecanoate]
- Significant log10 reduction compared to nontreated controls: Secreted interleukin 17A (IL-17A) ([1]; BT system, 2.2 μM): −0.25 log10
- Significant log10 reduction compared to nontreated controls: Secreted interleukin 17F (IL-17F) ([1]; BT system, 2.2 μM): −0.16 log10
- Significant log10 reduction compared to nontreated controls: Secreted immunoglobulin G (IgG) ([1]; BT system, 6.7 μM): −0.17 log10
- Significant log10 reduction compared to nontreated controls: Secreted immunoglobulin G (IgG) ([1]; BT system, 20.0 μM): −0.55 log10
- Significant log10 reduction compared to nontreated controls: Secreted interleukin 6 (IL-6) ([1]; BT system, 20.0 μM): −0.29 log10
- Significant log10 reduction compared to nontreated controls: Secreted interleukin 17A (IL-17A) ([1]; BT system, 20.0 μM): −0.29 log10
- Significant log10 reduction compared to nontreated controls: Secreted interleukin 17F (IL-17F) ([1]; BT system, 20.0 μM): −0.18 log10
- Significant log10 reduction compared to nontreated controls: 72-hour fibroblast proliferation (Dermal fibroblasts; HDF3CGF system, 6.7 μM): −0.67 log10
- Significant log10 reduction compared to nontreated controls: Collagen I (Dermal fibroblasts; HDF3CGF system, 6.7 μM): −0.07 log10
- Significant log10 reduction compared to nontreated controls: Plasminogen activation inhibitor 1 (PAI-1) (Dermal fibroblasts; HDF3CGF system, 6.7 μM): −0.08 log10
- Significant log10 reduction compared to nontreated controls: 72-hour fibroblast proliferation (Dermal fibroblasts; HDF3CGF system, 20.0 μM): −1.1 log10
- Significant log10 reduction compared to nontreated controls: Collagen I (Dermal fibroblasts; HDF3CGF system, 20.0 μM): −0.13 log10
- Significant log10 reduction compared to nontreated controls: Collagen III (Dermal fibroblasts; HDF3CGF system, 20.0 μM): −0.13 log10
- Significant log10 reduction compared to nontreated controls: Interferon gamma-induced protein 10 (IP-10)/CXCL10 (Dermal fibroblasts; HDF3CGF system, 20.0 μM): −0.14 log10
- Significant log10 reduction compared to nontreated controls: Interferon-inducible T cell alpha chemoattractant (I-TAC)/CXCL11 (Dermal fibroblasts; HDF3CGF system, 20.0 μM): −0.17 log10
- Significant log10 reduction compared to nontreated controls: Monokine induced by gamma interferon (MIG)/CXCL9 (Dermal fibroblasts; HDF3CGF system, 20.0 μM): −0.10 log10
- Significant log10 reduction compared to nontreated controls: Plasminogen activation inhibitor 1 (PAI-1) (Dermal fibroblasts; HDF3CGF system, 20.0 μM): −0.13 log10
- Significant log10 reduction compared to nontreated controls: Vascular cell adhesion molecule 1 (VCAM-1) (Dermal fibroblasts; HDF3CGF system, 20.0 μM): −0.28 log10
- Significant log10 reduction compared to nontreated controls: Monocyte chemoattractant protein 1 (MCP-1) ([2]; 6.7 μM): −0.18 log10
- Significant log10 reduction compared to nontreated controls: Monocyte chemoattractant protein 1 (MCP-1) ([2]; 20.0 μM): −0.15 log10
